Legend:
Assay type in all cases: in vivo
[1] = tested on: prickly sida (Sida spinosa L.); assay: Test Example 1: foliar treatment, upland pot test, prickly sida; conditions: for Growth inhibition rate (%) Prickly sida: 31 g/ha active ingredient, observed 17th to 25th day after application
Source text: (§1) Upland field soil was put into a 1/170,000 hectare pot, and seeds of various plants were sown. When the respective plants reached predetermined leaf stage ((1) barnyardgrass (Echinochloa crus-galli L.): 1.0 to 3.0 leaf stage, (2) crabgrass (Digitaria sanguinalis L.): 1.0 to 3.0 leaf stage, (3) green foxtail (Setaria viridis L.): 1.0 to 3.0 leaf stage, (4) redroot pigweed (Amaranthus retroflexus L.): cotyledon stage to 2.0 leaf stage, (5) prickly sida (Sida spinosa L.): cotyledon stage to 1.0 leaf stage, (6) velvetleaf (Abutilon theophrasti MEDIC.): 0.1 to 1.5 leaf stage, (7) rice (Oryza sativa L.): 1.0 to 3.0 leaf stage, (8) wheat (Triticum spp.): 1.7 to 3.4 leaf stage, (9) corn (Zea mays L.): 2.0 to 3.5 leaf stage, (10) soybean (Glycine max Merr.): primary leaf stage to 0.4 leaf stage), wettable powders or emulsifiable concentrates of the compounds of the above formula (I) prepared in accordance with a conventional preparation method, were weighed so that the active ingredients became the prescribed amounts, and diluted with water in an amount corresponding to 500 liter per 1 hectare (containing 0.1 vol % of “KUSARINOH”, manufactured by NIHON NOHYAKU CO., LTD. as an agricultural spreader). The spray solutions thus prepared were applied for foliar treatment by a small sprayer.
(§2) On the 17th to 25th day after application, the state of growth of the respective plants was visually observed, and the herbicidal effect was evaluated by a growth inhibition rate (%) of 0 (equivalent to the non-treated area) to 100% (complete kill).

[2] = tested on: crabgrass (Digitaria sanquinalis L.); assay: Test Example 2: soil application on the day after sowing, crabgrass; conditions: 250 g/ha active ingredient, observed 19th to 28th day after application
Source text: (§3) Upland field soil was put into a 1/170,000 hectare pot, and seeds of various plants barnyardgrass (Echinochloa crus-galli L.), crabgrass (Digitaria sanquinalis L.), green foxtail (Setaria viridis L.), redroot pigweed (Amaranthus retroflexus L.), prickly sida (Sida spinosa L.), velvetleaf (Abutilon theophrasti MEDIC.), rice (Oryza sativa L.), wheat (Triticum spp.), corn (Zea mays L.) and soybean (Glycine max Merr.)) were sown. On the day after sowing, wettable powders or emulsifiable concentrates of the compounds of the above formula (I) prepared in accordance with a conventional preparation method, were weighed so that the active ingredients became the prescribed amounts, and diluted with water in an amount corresponding to 500 liter per 1 hectare, followed by soil application with a small sprayer.
(§4) On the 19th to 28th day after the application, the state of growth of the respective plants was visually observed, and the herbicidal effect was evaluated by a growth inhibition rate (%) of from 0 (equivalent to the non-treated area) to 100% (complete kill).

[3] = tested on: rice (Oryza sativa L.); assay: Test Example 2: soil application on the day after sowing, rice; conditions: 250 g/ha active ingredient, observed 19th to 28th day after application
Source text: as §3, §4

[4] = tested on: corn (Zea mays L.); assay: Test Example 2: soil application on the day after sowing, corn; conditions: 250 g/ha active ingredient, observed 19th to 28th day after application
Source text: as §3, §4

[5] = tested on: green foxtail (Setaria viridis L.); assay: Test Example 1: foliar treatment, upland pot test, green foxtail
Source text: as §1, §2

[6] = tested on: redroot pigweed (Amaranthus retroflexus L.); assay: Test Example 1: foliar treatment, upland pot test, redroot pigweed; conditions: for Growth inhibition rate (%) Redroot pigweed: 31 g/ha active ingredient, observed 17th to 25th day after application
Source text: as §1, §2

[7] = tested on: redroot pigweed (Amaranthus retroflexus L.); assay: Test Example 2: soil application on the day after sowing, redroot pigweed; conditions: 250 g/ha active ingredient, observed 19th to 28th day after application
Source text: as §3, §4

[8] = tested on: velvetleaf (Abutilon theophrasti MEDIC.); assay: Test Example 1: foliar treatment, upland pot test, velvetleaf
Source text: as §1, §2

[9] = tested on: rice (Oryza sativa L.); assay: Test Example 1: foliar treatment, upland pot test, rice
Source text: as §1, §2

[10] = tested on: corn (Zea mays L.); assay: Test Example 1: foliar treatment, upland pot test, corn
Source text: as §1, §2

[11] = tested on: soybean (Glycine max Merr.); assay: Test Example 1: foliar treatment, upland pot test, soybean
Source text: as §1, §2

[12] = tested on: green foxtail (Setaria viridis L.); assay: Test Example 2: soil application on the day after sowing, green foxtail; conditions: 250 g/ha active ingredient, observed 19th to 28th day after application
Source text: as §3, §4

[13] = tested on: barnyardgrass (Echinochloa crus-galli L.); assay: Test Example 1: foliar treatment, upland pot test, barnyardgrass
Source text: as §1, §2

[14] = tested on: prickly sida (Sida spinosa L.); assay: Test Example 2: soil application on the day after sowing, prickly sida; conditions: 250 g/ha active ingredient, observed 19th to 28th day after application
Source text: as §3, §4

[15] = tested on: crabgrass (Digitaria sanguinalis L.); assay: Test Example 1: foliar treatment, upland pot test, crabgrass
Source text: as §1, §2

[16] = tested on: barnyardgrass (Echinochloa crus-galli L.); assay: Test Example 2: soil application on the day after sowing, barnyardgrass; conditions: 250 g/ha active ingredient, observed 19th to 28th day after application
Source text: as §3, §4

[17] = tested on: velvetleaf (Abutilon theophrasti MEDIC.); assay: Test Example 2: soil application on the day after sowing, velvetleaf; conditions: 250 g/ha active ingredient, observed 19th to 28th day after application
Source text: as §3, §4

[18] = tested on: soybean (Glycine max Merr.); assay: Test Example 2: soil application on the day after sowing, soybean; conditions: 250 g/ha active ingredient, observed 19th to 28th day after application
Source text: as §3, §4

[19] = tested on: wheat (Triticum spp.); assay: Test Example 1: foliar treatment, upland pot test, wheat
Source text: as §1, §2

[20] = 31 g/ha active ingredient, observed 17th to 25th day after application

Row | Compound | Growth inhibition rate (%) Prickly sida [1] | Growth inhibition rate (%) Crabgrass [2] | Growth inhibition rate (%) Rice [3] | Growth inhibition rate (%) Corn [4] | Growth inhibition rate (%) Green foxtail [5, 20] | Growth inhibition rate (%) Redroot pigweed [6] | Growth inhibition rate (%) Redroot pigweed [7] | Growth inhibition rate (%) Velvetleaf [8, 20] | Growth inhibition rate (%) Rice [9, 20] | Growth inhibition rate (%) Corn [10, 20] | Growth inhibition rate (%) Soybean [11, 20] | Growth inhibition rate (%) Green foxtail [12] | Growth inhibition rate (%) Barnyardgrass [13, 20] | Growth inhibition rate (%) Prickly sida [14] | Growth inhibition rate (%) Crabgrass [15, 20] | Growth inhibition rate (%) Barnyardgrass [16] | Growth inhibition rate (%) Velvetleaf [17] | Growth inhibition rate (%) Soybean [18] | further results
1 | COC(C)COc1c(S(C)(=O)=O)ccc(C(=O)c2cnn(C)c2O)c1C (stereo not shown) [compound 227] | 90% | 100% | 100% | 0% | 98% | 100% | 100% | 100% | 80% | 0% | 100% | 100% | 95% | 98% | 60% | 100% | 100% | 10% | –
2 | Cc1c(C(=O)c2cnn(C)c2O)ccc(S(C)(=O)=O)c1COCC(F)(F)F [compound 160] | 60% | 100% | 100% | 0% | 75% | 98% | 100% | 100% | 50% | 0% | 98% | 100% | 90% | 95% | 100% | 100% | 100% | 50% | –
3 | COCC(C)Oc1c(S(C)(=O)=O)ccc(C(=O)c2cnn(C)c2O)c1C (stereo not shown) [compound 254] | 40% | 98% | 75% | 0% | 50% | 95% | 100% | 80% | 40% | 0% | 80% | 10% | 40% | 60% | 50% | 100% | 50% | 0% | Growth inhibition rate (%) Wheat [19, 20]: 0%
4 | CCn1ncc(C(=O)c2ccc(S(C)(=O)=O)c(OCC3OCCO3)c2Cl)c1O [compound 250] | – | – | – | – | – | – | – | – | – | – | – | – | – | – | – | – | – | – | inhibition at 63 g/ha ([1]; Sida spinosa, 63 g/ha active ingredient, observed 21st day after application, read-out: Growth inhibition rate (%) Prickly sida): 60%; inhibition at 63 g/ha ([5]; Setaria viridis, 63 g/ha active ingredient, observed 21st day after application, read-out: Growth inhibition rate (%) Green foxtail): 80%; inhibition at 63 g/ha ([6]; Amaranthus retroflexus, 63 g/ha active ingredient, observed 21st day after application, read-out: Growth inhibition rate (%) Redroot pigweed): 100%; inhibition at 63 g/ha ([8]; Abutilon theophrasti, 63 g/ha active ingredient, observed 21st day after application, read-out: Growth inhibition rate (%) Velvetleaf): 95%; inhibition at 63 g/ha ([9]; Oryza sativa, 63 g/ha active ingredient, observed 21st day after application, read-out: Growth inhibition rate (%) Rice): 0%; inhibition at 63 g/ha ([10]; Zea mays, 63 g/ha active ingredient, observed 21st day after application, read-out: Growth inhibition rate (%) Corn): 10%; inhibition at 63 g/ha ([11]; Glycine max, 63 g/ha active ingredient, observed 21st day after application, read-out: Growth inhibition rate (%) Soybean): 90%; inhibition at 63 g/ha ([13]; Echinochloa crus-galli, 63 g/ha active ingredient, observed 21st day after application, read-out: Growth inhibition rate (%) Barnyardgrass): 100%; inhibition at 63 g/ha ([19]; Triticum, 63 g/ha active ingredient, observed 21st day after application, read-out: Growth inhibition rate (%) Wheat): 0%; inhibition at 63 g/ha ([15]; Digitaria sanguinalis, 63 g/ha active ingredient, observed 21st day after application, read-out: Growth inhibition rate (%) Crabgrass): 98%
5 | Cc1c(C(=O)c2cnn(C)c2O)ccc(S(C)(=O)=O)c1CC1OCCO1 [compound 256] | – | – | – | – | – | – | – | – | – | – | – | – | – | – | – | – | – | – | inhibition at 250 g/ha ([2]; Digitaria, read-out: Growth inhibition rate (%) Crabgrass): 100%; inhibition at 250 g/ha ([3]; Oryza sativa, read-out: Growth inhibition rate (%) Rice): 80%; inhibition at 250 g/ha ([4]; Zea mays, read-out: Growth inhibition rate (%) Corn): 0%; inhibition at 31 g/ha ([5]; Setaria viridis, 31 g/ha active ingredient, observed 17th to 25th day after application, read-out: Growth inhibition rate (%) Green foxtail): 70%; inhibition at 31 g/ha ([8]; Abutilon theophrasti, 31 g/ha active ingredient, observed 17th to 25th day after application, read-out: Growth inhibition rate (%) Velvetleaf): 100%; inhibition at 31 g/ha ([9]; Oryza sativa, 31 g/ha active ingredient, observed 17th to 25th day after application, read-out: Growth inhibition rate (%) Rice): 60%; inhibition at 31 g/ha ([10]; Zea mays, 31 g/ha active ingredient, observed 17th to 25th day after application, read-out: Growth inhibition rate (%) Corn): 0%; inhibition at 31 g/ha ([11]; Glycine max, 31 g/ha active ingredient, observed 17th to 25th day after application, read-out: Growth inhibition rate (%) Soybean): 80%; inhibition at 250 g/ha ([12]; Setaria viridis, read-out: Growth inhibition rate (%) Green foxtail): 95%; inhibition at 31 g/ha ([13]; Echinochloa crus-galli, 31 g/ha active ingredient, observed 17th to 25th day after application, read-out: Growth inhibition rate (%) Barnyardgrass): 100%; inhibition at 250 g/ha ([14]; Sida spinosa, read-out: Growth inhibition rate (%) Prickly sida): 60%; inhibition at 31 g/ha ([15]; Digitaria sanguinalis, 31 g/ha active ingredient, observed 17th to 25th day after application, read-out: Growth inhibition rate (%) Crabgrass): 90%; inhibition at 250 g/ha ([16]; Echinochloa crus-galli, read-out: Growth inhibition rate (%) Barnyardgrass): 100%; inhibition at 250 g/ha ([17]; Abutilon theophrasti, read-out: Growth inhibition rate (%) Velvetleaf): 80%
6 | Cc1c(C(=O)c2cnn(C)c2O)ccc(S(C)(=O)=O)c1COC(C)C [compound 257] | 75% | 100% | 90% | 0% | 98% | 85% | 98% | 98% | 90% | 0% | 70% | 60% | 100% | 70% | 90% | 90% | 80% | 0% | –

Reference: patent publication US20100317528A1, “HERBICIDE CONTAINING BENZOYLPYRAZOLE COMPOUND” (ISHIHARA SANGYO KAISHA, LTD., priority 2006, published 2010)
